From patent EP1508617B1, “Method for stabilizing an alanine aminotransferase and the corresponding compositions” (SYSMEX CORPORATION, priority 1998, dated 1999)
Like-named read-outs stand apart in the source and are kept apart here.

Target: T1, ALT (Homo sapiens, UniProt P24298)
T1 construct: purchased ASAHI CHEMICAL INDUSTRIES CO., LTD; T-71
T1 sequence (P24298 1-496): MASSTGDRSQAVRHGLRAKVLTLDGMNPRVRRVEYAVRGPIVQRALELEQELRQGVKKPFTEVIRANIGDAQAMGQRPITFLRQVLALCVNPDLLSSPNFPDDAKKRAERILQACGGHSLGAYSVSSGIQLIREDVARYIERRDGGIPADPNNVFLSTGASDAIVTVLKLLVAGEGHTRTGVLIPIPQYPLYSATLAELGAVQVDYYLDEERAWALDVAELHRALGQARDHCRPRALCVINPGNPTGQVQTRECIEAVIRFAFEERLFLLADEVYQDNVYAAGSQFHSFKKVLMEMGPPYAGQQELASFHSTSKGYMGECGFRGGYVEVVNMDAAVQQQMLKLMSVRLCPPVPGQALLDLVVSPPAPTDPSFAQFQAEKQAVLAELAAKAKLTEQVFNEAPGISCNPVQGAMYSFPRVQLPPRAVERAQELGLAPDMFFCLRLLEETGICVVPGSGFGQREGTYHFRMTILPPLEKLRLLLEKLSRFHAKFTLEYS
Assay: Stabilization effect of amino acids on ALT in control substance (residual activity after storage)
Format: biochemical
Details: for activity at 10000 µM: 96 h; for remaining activity at 1000 µM: tyrosine 1 mmol/L; for remaining activity at 5000 µM: valine 5 mmol/L; for remaining activity at 20000 µM: valine 20 mmol/L; for remaining activity at 50000 µM: valine 50 mmol/L; for remaining activity at 100000 µM: valine 100 mmol/L
Description: Using a human serum base and a BSA base as a medium, control substances were prepared respectively by adding, as a stabilizer, no amino acid, valine (10 mmol/L) as amino acid, proline (10 mmol/L) or other amino acid (10 mmol/L, provided that 1 mmol/L in case of tyrosine) to the respective mediums and then adding, as an enzyme, ALT (about 100 U/L).
The respective control substances thus obtained were stored at 45°C for four days and the residual activity of ALT contained in the respective control substances was measured.
CO., LTD. (manufacturing No. T-71). Furthermore, the human serum base used herein is a human serum base prepared by previously subjecting human serum to a heat treatment at 56°C for four hours thereby to devitalize an endogenous enzyme, followed by sterilization by filtration using a membrane filter of 0.2 µm in a pore diameter. The BSA base used herein is BES buffer (20 mmol/L) containing 3W/V% BSA.
With regard to the residual activity of ALT, the residual activity of ALT was measured by using an ALT reagent L "KOKUSAI" manufactured by INTERNATIONAL REAGENTS CORPORATION.
Valine and r-ALT were added to a human serum base and a BSA base in the concentration of about 100 U/L and, after storage at 45°C for four days, the residual activity was measured.

[1] = BSA base, amino acid 10 mmol/L, r-ALT about 100 U/L, stored at 45°C for four days (Example 1), read-out: Residual activity (%) of ALT
[2] = Human serum base, amino acid 10 mmol/L, r-ALT about 100 U/L, stored at 45°C for four days (Example 1), read-out: Residual activity (%) of ALT
[3] = read-out: Residual activity (%) of ALT, BSA base, amino acid 10 mmol/L, r-ALT about 100 U/L, stored at 45°C for four days (Example 1)
[4] = read-out: Residual activity (%) of ALT, Human serum base, amino acid 10 mmol/L, r-ALT about 100 U/L, stored at 45°C for four days (Example 1)
[5] = BSA base, valine 0.5 mmol/L, 45°C for four days (Example 2)
[6] = BSA base, 45°C for four days (Example 2)
[7] = Human serum base, 45°C for four days (Example 2)

SMILES	activity at 10000 µM [1] [%]	activity at 10000 µM [2] [%]	further results
CC(C)C[C@H](N)C(=O)O [Leucine]	28	20	
NC(=O)C[C@H](N)C(=O)O [Asparagine]	25	14	
CSCC[C@H](N)C(=O)O [Methionine]	31	20	
N[C@@H](Cc1c[nH]c2ccccc12)C(=O)O [Tryptophane]	30	18	
NC(=O)CC[C@H](N)C(=O)O [Glutamine]	15	17	
N[C@@H](CS)C(=O)O [Cysteine]	24	14	
N[C@@H](CO)C(=O)O [Serine]	32	19	
N[C@@H](Cc1ccccc1)C(=O)O [phenylalanine]	31	19	
C[C@@H](O)[C@H](N)C(=O)O [Threonine]	31	18	
NCC(=O)O [Glycine]	30	19	
N[C@@H](CC(=O)O)C(=O)O [Aspartic acid]			remaining activity at 10000 µM [1]: 23%; remaining activity at 10000 µM [2]: 13%
N[C@@H](Cc1ccc(O)cc1)C(=O)O [Tyrosine]			remaining activity at 1000 µM (BSA base, r-ALT about 100 U/L, stored at 45°C for four days (Example 1)): 31%; remaining activity at 1000 µM (Human serum base, r-ALT about 100 U/L, stored at 45°C for four days (Example 1)): 18%
N[C@@H](CCC(=O)O)C(=O)O [Glutamic acid]			remaining activity at 10000 µM [3]: 28%; remaining activity at 10000 µM [4]: 15%
N[C@@H](Cc1c[nH]cn1)C(=O)O [Histidine]	28	15	
O=C(O)[C@@H]1CCCN1 [proline]	61	35	
CC(C)[C@H](N)C(=O)O [Valine]	62	55	Residual activity (%) of ALT [5]: 36%; remaining activity at 500 µM [5]: 38%; remaining activity at 5000 µM [6]: 46%; remaining activity at 10000 µM (BSA base, valine 10 mmol/L, 45°C for four days (Example 2), read-out: Residual activity (%) of ALT): 62%; remaining activity at 20000 µM [6]: 65%; remaining activity at 50000 µM [6]: 64%; remaining activity at 100000 µM [6]: 65%; remaining activity at 500 µM (Human serum base, valine 0.5 mmol/L, 45°C for four days (Example 2)): 28%; remaining activity at 5000 µM [7]: 33%; remaining activity at 10000 µM (Human serum base, valine 10 mmol/L, 45°C for four days (Example 2), read-out: Residual activity (%) of ALT): 55%; remaining activity at 20000 µM [7]: 56%; remaining activity at 50000 µM [7]: 56%; remaining activity at 100000 µM [7]: 55%
NCCCC[C@H](N)C(=O)O [Lysine]	31	20	
CC[C@H](C)[C@H](N)C(=O)O [Isoleucine]	28	18	
C[C@H](N)C(=O)O [Alanine]	28	15	
N=C(N)NCCC[C@H](N)C(=O)O [Arginine]			activity at 10000 µM [3]: 30%; activity at 10000 µM [4]: 18%
